# Experimental data as given in US6428817B1, “Companion animal therapeutic treat” (priority 2001, dated 2002).
# Key:
# cartilage degradation = details: mammals; cited from earlier work
# [1] = system: bovine nasal cartilage explants; test: Proteoglycan degradation in bovine nasal cartilage explants, basal and TNF alpha stimulated; assay for sulfated glycosaminoglycans; assay type: cell-based; details: EGCg 22 μM, 5 days culture, with or without recombinant human tumor necrosis factor alpha 3 nM
# Procedure: See, Haqqi, et al., Proc. Natl. Acad. Sci., USA, 96:4524-29 (1999). […] Id. In an experiment, purified EGCg, from Sigma Chemical Supply, St. Louis, Mo., was placed with bovine nasal cartilage explants at a concentration of22 μM. This mixture was cultured for 5 days in the presence or absence of the pro-inflammatory cytokine, recombinant human tumor necrosis factor alpha at 3 nM. The inhibition of both the basal and stimulated protcoglycan degradation by EGCg was measured using a calorimetric assay for sulfated glycosaminoglycans. See, Farndale, et al., Biochem. Biophys. Acta, 4:883 (1986).
substance,measurement,setting,value
epigallocatechin-3-gallate [EGCg],inhibition of cartilage degradation,cartilage degradation,inhibitor of cartilage degradation
same,inhibition of basal and stimulated proteoglycan degradation (cartilage breakdown),[1],potent inhibitor of cartilage breakdown
